According to US9266817B2, “Catecholamine derivatives for obesity and neurological disorders” (EMORY UNIVERSITY, priority 2009, dated 2016):

Key:
[1] = target: T1, TrkB (Homo sapiens, UniProt Q16620); assay: TrkB activation by catecholamines in TrkB-transfected HEK293 cells pretreated with OCT3 inhibitor; format: cell-based; design: expressed in transfected cells; host or cells: HEK293; conditions: 2 μM, 30 minutes pretreatment, catecholamines 15 minutes
Protocol: HEK293 cells were transfected with TrkB and pretreated with the OCT3 inhibitor decynium (2 μM) for 30 minutes, followed by stimulation with catecholamines for 15 minutes. The cell lysates were monitored by immunoblotting with anti-p-TrkB-Y-816. […] An equal amount of TrkB was expressed in each sample (FIG. 22A, lower panel).
Target sequence in this assay (Q16620 32-822, species assumed): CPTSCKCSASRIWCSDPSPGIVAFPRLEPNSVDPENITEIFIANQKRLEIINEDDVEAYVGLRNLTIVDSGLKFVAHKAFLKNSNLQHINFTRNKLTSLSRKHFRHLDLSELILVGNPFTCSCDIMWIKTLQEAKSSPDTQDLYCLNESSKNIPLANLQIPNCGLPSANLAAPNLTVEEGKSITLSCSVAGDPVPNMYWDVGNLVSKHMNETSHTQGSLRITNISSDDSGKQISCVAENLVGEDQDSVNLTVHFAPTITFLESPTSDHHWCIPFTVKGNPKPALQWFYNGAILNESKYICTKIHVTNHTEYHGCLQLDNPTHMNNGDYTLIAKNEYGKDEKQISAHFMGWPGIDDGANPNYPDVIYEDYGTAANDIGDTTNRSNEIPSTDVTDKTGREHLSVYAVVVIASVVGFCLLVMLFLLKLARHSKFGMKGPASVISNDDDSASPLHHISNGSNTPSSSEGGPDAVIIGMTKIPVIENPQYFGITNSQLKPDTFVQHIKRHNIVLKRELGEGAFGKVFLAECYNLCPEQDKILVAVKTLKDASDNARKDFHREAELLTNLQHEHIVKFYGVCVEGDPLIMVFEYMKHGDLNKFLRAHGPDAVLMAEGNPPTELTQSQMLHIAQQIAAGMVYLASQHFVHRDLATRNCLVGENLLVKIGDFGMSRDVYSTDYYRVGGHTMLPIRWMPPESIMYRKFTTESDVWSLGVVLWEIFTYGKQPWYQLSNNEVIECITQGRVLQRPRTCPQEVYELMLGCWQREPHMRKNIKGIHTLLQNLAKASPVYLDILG

[2] = target: T2, TrkB (Rattus norvegicus, UniProt Q63604); assay: Immunoblotting of TrkB phosphorylation in primary cortical neurons treated with catecholamines; format: cell-based
T2 construct: endogenous in cells; host or cells: primary rat cortical and hippocampal neurons
T2 sequence (Q63604 32-821): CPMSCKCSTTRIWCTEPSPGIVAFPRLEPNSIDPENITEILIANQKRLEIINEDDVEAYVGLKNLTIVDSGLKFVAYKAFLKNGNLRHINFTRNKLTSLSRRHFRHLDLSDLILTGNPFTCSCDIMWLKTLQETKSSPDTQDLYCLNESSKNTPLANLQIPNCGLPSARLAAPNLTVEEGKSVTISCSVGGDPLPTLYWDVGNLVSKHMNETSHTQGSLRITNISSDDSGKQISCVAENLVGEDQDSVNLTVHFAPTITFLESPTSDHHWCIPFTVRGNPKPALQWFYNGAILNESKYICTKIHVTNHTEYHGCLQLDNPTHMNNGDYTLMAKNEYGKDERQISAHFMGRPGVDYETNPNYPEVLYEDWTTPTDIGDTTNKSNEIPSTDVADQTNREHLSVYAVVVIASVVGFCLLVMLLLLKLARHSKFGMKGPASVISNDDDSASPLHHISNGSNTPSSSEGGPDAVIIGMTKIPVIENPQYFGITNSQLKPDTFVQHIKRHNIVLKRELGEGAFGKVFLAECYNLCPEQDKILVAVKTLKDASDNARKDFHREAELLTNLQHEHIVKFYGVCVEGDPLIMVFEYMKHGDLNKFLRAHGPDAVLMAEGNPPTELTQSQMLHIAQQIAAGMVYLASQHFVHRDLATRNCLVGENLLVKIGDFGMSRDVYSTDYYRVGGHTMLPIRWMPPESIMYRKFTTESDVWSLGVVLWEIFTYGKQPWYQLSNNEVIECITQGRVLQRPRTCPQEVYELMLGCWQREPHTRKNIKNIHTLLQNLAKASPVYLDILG
Protocol: Primary cultured rat cortical neurons were prepared as follows. E17 rat pups were decapitated and cortex was extirpated, cross chopped and suspended by pipetting for separation in 5% fetal calf serum (FCS), 5% horse serum (HS) DMEM. The cell suspension was then centrifuged at 250×g for 5 min. This operation was repeated. Cells were seeded into polyethyleneimine-coated 10 cm^2 dishes and 12-well plates including coated-coverslips and incubated at 37° C. in 5% CO2/95% air. After 3 hours, the culture medium was changed to Neurobasal containing B-27 supplement (Invitrogen; Carlsbad, Calif.) and incubated for 4 days. For maintenance, half of the culture medium was changed to fresh Neurobasal/B27 in every 4 days. After 1 week, the dished cultured neurons were ready for use.
(§1) To explore whether monoamine neurotransmitters, including catecholamines (see, e.g., FIG. 1), could stimulate TrkB activation, hippocampal neurons were treated with 300 nM of catecholamines, serotonin, and melatonin for 30 min.

[3] = target: T3, TrkB (Mus musculus, UniProt P15209, F616A); format: in vivo; conditions: L-DOPA 50 mg/kg, DOPS 100 mg/kg, 1NMPP1 50 μM
T3 construct: from tissue; host or cells: mouse brain
T3 sequence (P15209 32-821 F616A): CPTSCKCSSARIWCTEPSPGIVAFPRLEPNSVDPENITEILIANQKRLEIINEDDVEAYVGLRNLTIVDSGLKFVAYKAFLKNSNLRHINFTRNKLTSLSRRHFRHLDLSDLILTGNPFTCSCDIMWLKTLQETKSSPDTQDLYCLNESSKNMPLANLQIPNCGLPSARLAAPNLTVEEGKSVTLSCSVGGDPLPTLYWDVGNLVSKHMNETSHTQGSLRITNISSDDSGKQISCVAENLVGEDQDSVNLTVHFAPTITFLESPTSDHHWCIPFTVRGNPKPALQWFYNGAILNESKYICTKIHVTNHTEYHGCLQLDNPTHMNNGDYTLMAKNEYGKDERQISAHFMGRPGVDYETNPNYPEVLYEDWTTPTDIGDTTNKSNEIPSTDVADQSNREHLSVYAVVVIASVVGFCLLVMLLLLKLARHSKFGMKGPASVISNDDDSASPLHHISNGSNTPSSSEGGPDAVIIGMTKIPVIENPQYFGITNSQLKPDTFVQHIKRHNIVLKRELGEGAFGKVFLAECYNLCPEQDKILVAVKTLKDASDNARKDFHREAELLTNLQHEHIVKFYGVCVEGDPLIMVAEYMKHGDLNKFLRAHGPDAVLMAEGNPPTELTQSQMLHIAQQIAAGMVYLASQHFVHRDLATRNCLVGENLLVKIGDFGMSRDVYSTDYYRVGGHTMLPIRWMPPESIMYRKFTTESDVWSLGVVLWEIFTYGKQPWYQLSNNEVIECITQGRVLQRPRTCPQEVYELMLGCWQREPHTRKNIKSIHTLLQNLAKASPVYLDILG
Protocol: The DOPS concentration was 20 mg/ml, the vitamin C concentration was 2 mg/ml, and the benserazide concentration was 5 mg/ml. The vitamin C prevents oxidation of the DOPS, and the benserazide is a peripheral inhibitor of AADC and restricts the production of NE from DOPS to the brain. The compounds were added to a tube, and 20 μl of 10 M HCl was added to each ml of DOPS solution. The appropriate amount of water was added to the tube, and then HCl was added to achieve the desired volume. For example, to make 1 mL of a DOPS solution, 20 mg DOPS, 2 mg vitamin C, and 5 mg benserazide were added to a tube, followed by 980 μL of water and 20 μL of 10 M HCl. The solution was vortexed until all DOPS was dissolved. The DOPS solution was injected subcutaneously in a volume of 50 μl/g of mouse. The appropriate amount of DOPS solution was pipetted into a clean tube, followed by the amount of 10 M NaOH required to exactly neutralize the HCl. The solution was then shaken. The amount of 10 M NaOH is the weight of the mouse in microliters. For example, for a 20 g mouse, pipet 1 ml of the DOPS solution is pipetted into a tube and 20 μL of 10 M NaOH is added. For a 30 g mouse, 1.5 mL of the DOPS solution is pipetted into a tube and 30 μl of 10 M NaOH is added. Two to four month-old TrkBF616A mice were pretreated with 1NMPP1 in drinking water (50 μM) 1 day before L-DOPA (50 mg/kg) or DOPS (100 mg/kg) intraperitoneal injection. At times of 2 hours and 5 hours after drug administration, the L-DOPA or DOPS-treated mice were sacrificed, respectively. The brain lysates were prepared and analyzed by immunoblotting against anti-phospho-TrkB Y816 and TrkA Y794 antibodies.
TrkB F616A mice were pretreated with 1NMPP1 (50 μM) before L-DOPA or DOPS administration.

[4] = target: T4, TrkA (Mus musculus, UniProt Q3UFB7); assay: TrkA activation in mouse brain after DOPS (control); format: in vivo; conditions: wild-type and DBH -/- mice
T4 construct: from tissue; host or cells: mouse brain
T4 sequence (Q3UFB7 34-799): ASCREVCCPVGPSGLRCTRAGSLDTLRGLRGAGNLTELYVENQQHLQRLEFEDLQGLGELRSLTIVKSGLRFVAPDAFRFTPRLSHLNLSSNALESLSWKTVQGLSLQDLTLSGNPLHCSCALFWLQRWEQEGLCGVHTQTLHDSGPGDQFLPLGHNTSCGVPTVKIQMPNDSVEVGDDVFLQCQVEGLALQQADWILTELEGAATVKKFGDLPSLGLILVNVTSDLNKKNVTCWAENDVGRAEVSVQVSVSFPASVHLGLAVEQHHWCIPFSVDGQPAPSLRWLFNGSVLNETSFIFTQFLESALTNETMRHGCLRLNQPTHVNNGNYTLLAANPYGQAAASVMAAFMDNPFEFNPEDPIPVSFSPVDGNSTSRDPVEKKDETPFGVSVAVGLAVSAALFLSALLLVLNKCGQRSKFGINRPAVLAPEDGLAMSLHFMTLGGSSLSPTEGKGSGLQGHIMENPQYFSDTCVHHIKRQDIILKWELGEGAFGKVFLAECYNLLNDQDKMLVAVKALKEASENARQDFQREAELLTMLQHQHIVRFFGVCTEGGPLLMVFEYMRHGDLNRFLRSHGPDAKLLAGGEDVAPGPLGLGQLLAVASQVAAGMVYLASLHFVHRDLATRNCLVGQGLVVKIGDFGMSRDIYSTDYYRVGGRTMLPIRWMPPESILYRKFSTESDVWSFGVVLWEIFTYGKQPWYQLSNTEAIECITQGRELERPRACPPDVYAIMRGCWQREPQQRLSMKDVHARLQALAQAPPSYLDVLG
Protocol: Mice lacking dopamine β-hydroxylase (DBH) are unable to synthesize noradrenaline (essential for mouse fetal development) or adrenaline and die in utero. Administration of DOPS, which can be converted to noradrenaline in the absence of DBH, rescued DBH −/− mice from dying. Mature DBH −/− mice can live without supplemental of DOPS. […] In wild-type control mice, DOPS induced TrkB activation in a time dependent manner with the maximal effect at 12 hours. In contrast, DOPS-triggered TrkB activation occurred at 1 hour, peaked at 5 hours, and decreased at 12 hours in DBH −/− mice. As a control, TrkA was not activated.

[5] = system: BDNF; assay: Quantitative analysis of BDNF in mouse brain during drug treatment; format: in vivo, mice; conditions: during the drug treatment
[6] = system: TrkB; format: in vivo
[7] = target: T2, TrkB; assay: Immunofluorescent staining with anti-phospho-TrkB Y816 in primary hippocampal neurons; format: cell-based; conditions: 300 nM, 30 min
Protocol: Primary Rat Cortical and Hippocampal Neuron Cultures
Primary hippocampal neurons were seeded on poly-L-lysine coated coverslips in a 12-well plate. After 7 days in vitro, the neurons were treated with 100 ng/ml BDNF or variety of neurotransmitters and 7,8-dihydroxyflavone compound (500 nM) for 30 min, and then washed with PBS. Cells were fixed with 3% formaldehyde in PBS at room temperature for 15 min. The cells were then permeabilized and blocked by 0.4% Triton X-100 and 2% FBS in PBS at room temperature for 15 minutes, washed with PBS three times and treated with anti-MAP2 (1:200) and anti-phospho-TrkB antibodies (1:100). After staining with FITC- or Rhodamine-conjugated secondary antibody, the coverslips were mounted on slides. Fluorescent images were taken by OLYMPUS IX71 fluorescence microscope (Olympus; Center Valley, Pa.).
as §1

[8] = target: T2, TrkB; assay: TrkB activation in cortical neurons after pretreatment with antibodies, receptor antagonists, transporter inhibitors or EDTA (anti-p-TrkB-Y-816 immunoblot); format: cell-based; conditions: BDNF-IgG 30 minutes, then BDNF 10 ng/ml or catecholamines 100 nM, 15 minutes
Description: (§2) Both antidepressants and exercise increase hippocampal BDNF mRNA expression through enhanced 5-HT and/or NE neurotransmission (Siuciak et al., Pharmacol. Biochem. Behav., 56:131-137, 1997; Dias et al., Neuropharmacology, 45:553-563, 2003; Ivy et al., Pharmacol. Biochem. Behav., 75:81-88, 2003; Garza et al., Pharmacol. Biochem. Behav., 77:209-220, 2004). If catecholamines activated TrkB signaling indirectly by promoting BDNF generation, then scavenging BDNF with its specific antibody would be expected to diminish catecholamines-mediated activation of TrkB. Cultured cortical neurons were pretreated with BDNF-IgG for 30 minutes followed by exposure to BDNF (10 ng/ml) or catecholamines (100 nM) for 15 minutes. […] It was then determined whether catecholamines could activate TrkB in neurons cultured from mice carrying a null mutation of BDNF.
To further investigate the specificity of catecholamines in inducing TrkB activation, cortical neurons were pretreated with control IgG or norepinephrine IgG, a rabbit polyclonal antibody for norepinephrine, followed by catecholamines.
It was then determined whether catecholamines could activate TrkB in neurons cultured from mice carrying a null mutation of NET.
(§3) The cell lysates were analyzed by immunoblotting with anti-p-TrkB-Y-816.
as §3
A group of primary cortical neurons were pretreated with 1 mM EDTA, and another group of primary cortical neurons were not pretreated. Both groups of primary cortical neurons were then treated with either Zn (100 μM) or a catecholamine (100 nM) for 15 minutes. The neuronal cell lysates were analyzed by immunoblotting with anti-p-TrkB-Y-816 antibody.

[9] = target: T5, TrkB (Mus musculus, UniProt P15209); assay: TrkB activation in cortical neurons cultured from BDNF-null mice; format: cell-based; conditions: 15 min
T5 construct: endogenous in cells; host or cells: primary cortical neurons from BDNF-null, TrkB +/- cross, TrkC knockout and NET -/- mice
T5 sequence (P15209 32-821): as the sequence (P15209 32-821 F616A) above, with A585F counted along it
Description: as §2

[10] = target: T1, TrkB; assay: TrkB dimerization, co-immunoprecipitation of GST-TrkB and HA-TrkB in HEK293 cells; format: cell-based; design: GST; HA; expressed in transfected cells; host or cells: HEK293; conditions: 15 minutes
Protocol: To determine whether catecholamines bind TrkB directly, an in vitro binding assay was conducted with purified ECD (extracellular domain) and ICD (intracellular domain) proteins from Trk receptors and ^3H-catecholamines. […] To determine whether the binding by catecholamines to TrkB receptor caused dimerization, GST-TrkB was co-transfected into HEK293 cells with HA-TrkB, followed by BDNF or monoamines treatment for 15 minutes.
Target sequence in this assay (Q16620 32-822, species assumed): as the sequence (Q16620 32-822, species assumed) above
Target sequence in this assay (Q16620 32-822, species assumed): as above

## CCN1/C(=C/c2ccc3ccccc3[n+]2CC)C=Cc2ccccc21.[I-] [decynium]
[1]
  Effect of OCT3 inhibitor on TrkB activation by catecholamines: failed to inhibit

## N[C@H](C(=O)O)[C@H](O)c1ccc(O)c(O)c1 [DOPS, dihydroxyphenylserine]
[2]
  TrkB activation in primary cultured neurons: rapidly induced TrkB activation
[3]
  TrkB tyrosine phosphorylation/activation in mice: provoked evident TrkB activation
[4]
  TrkA activation in mouse brain: not activated
[5]
  BDNF in mouse brain: not significantly altered
[6]; BDNF conditional knockout mice, compared to vehicle control
  TrkB activation in BDNF -/- cortex: strongly triggered TrkB activation
[6]; DBH -/- mice, intraperitoneal
  Time at which TrkB activation occurred: 1 h
  Time at which TrkB activation peaked: 5 h
  TrkB activation at 12 hours: decreased
[6]; wild-type control mice, intraperitoneal
  Time of maximal effect on TrkB activation: 12 h

B1: BDNF: Brain-derived neurotrophic factor, natural ligand of TrkB (protein, UniProt P23560 19-247, looked up)
Neurotrophic factor BDNF …: APMKEANIRGQGGLAYPGVRTHGTLESVNGPKAGSRGLTSLADTFEHVIEELLDEDQKVRPNEENNKDADLYTSRVMLSSQVPLEPPLLFLLEEYKNYLDAANMSMRVRRHSDPARRGELSVCDSISEWVTAADKKTAVDMSGGTVTVLEKVPVSKGQLKQYFYETKCNPMGYTKEGCRGIDKRHWNSQCRTTQSYVRALTMDSKKRIGWRFIRIDTSCVCTLTIKRGR
[7]
  TrkB tyrosine phosphorylation (immunofluorescent staining): strongly triggered TrkB tyrosine phosphorylation
[8]
  Effect of BDNF-IgG pretreatment on phosphorylation of TrkB induced by the substance: abolished
[9]
  Activation of TrkB in BDNF-null cortical neurons: evident activation of TrkB
[10]
  TrkB homodimerization: elicited TrkB homodimerization
